Patent US8273775B2, “Non-steroidal brassinosteroid mimetic” (priority 2006, dated 2012)

Columns and labels:
[1] = tested on: group I GSK-3 kinases (ASKs); test: ASK kinase assay with MBP as substrate, group I; format: biochemical, Arabidopsis; settings: 10 μM abrasin
Method: Coomassie staining was used as a loading control. b, Autoradiography of kinase assays with nine ASKs with MBP as a substrate in the presence or absence of 10 μM abrasin. The second member of group IV, ASKκ, had no kinase activity and was not included in the analysis. c, Autoradiography of kinase assays with AtMPK4, AtMPK6 and MBP as a substrate (left) and with AtAUR1 kinase and histone H3 as a substrate (right) in the presence or absence of 10 μM abrasin.
For in vitro kinase assays, MBP, MBP-BES1, and MBP-bes1 (20 ng each) were incubated with GST-BIN2 or GST-BRI1 kinase (200 ng each) in 20 μl of kinase buffer (20 mM Tris [pH 7.5], 100 mM NaCl, and 12 mM MgCl2) and 10 μCi ^32P-γATP. After incubation at 37° C. for 40 min, the reactions were stopped by adding 20 μl of 2×SDS buffer and boiling at 94° C. for 5 min. Proteins were resolved by a PAGE gel and phosphorylation was detected by exposing the dried gel to X-ray film. […]
Besides BIN2, nine additional GSK-3 kinases (also designated ASKs for Arabidopsis SHAGGY-related kinases) divided into four subgroups (I-IV) have been identified in Arabidopsis (Jonak and Hirt, 2002; Yoo et al. 2006). To determine the specificity of abrasin, its effect on the kinase activity of all ASKs was analyzed with myelin basic protein (MBP) as a general substrate. […]

[2] = molecular target: T1, ASKθ (group III) (Arabidopsis thaliana, UniProt Q96287); test: ASK kinase assay with MBP as substrate, ASKθ; format: biochemical; settings: 10 μM abrasin; read-out: residual activity
T1 sequence (Q96287 1-472): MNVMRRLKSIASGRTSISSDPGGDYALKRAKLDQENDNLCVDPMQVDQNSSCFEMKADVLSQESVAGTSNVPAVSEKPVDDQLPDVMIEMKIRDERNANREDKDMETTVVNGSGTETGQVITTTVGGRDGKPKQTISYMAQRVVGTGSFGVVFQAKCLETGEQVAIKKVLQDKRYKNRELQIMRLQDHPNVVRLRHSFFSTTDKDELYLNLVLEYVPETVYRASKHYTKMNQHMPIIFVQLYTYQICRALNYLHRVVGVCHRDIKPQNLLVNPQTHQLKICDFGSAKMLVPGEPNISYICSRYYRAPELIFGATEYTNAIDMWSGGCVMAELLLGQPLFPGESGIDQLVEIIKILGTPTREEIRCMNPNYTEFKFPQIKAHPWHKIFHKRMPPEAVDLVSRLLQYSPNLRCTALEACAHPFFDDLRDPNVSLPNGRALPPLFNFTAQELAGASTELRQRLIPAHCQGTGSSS
Method: Coomassie staining was used as a loading control. b, Autoradiography of kinase assays with nine ASKs with MBP as a substrate in the presence or absence of 10 μM abrasin.
For in vitro kinase assays, MBP, MBP-BES1, and MBP-bes1 (20 ng each) were incubated with GST-BIN2 or GST-BRI1 kinase (200 ng each) in 20 μl of kinase buffer (20 mM Tris [pH 7.5], 100 mM NaCl, and 12 mM MgCl2) and 10 μCi ^32P-γATP. After incubation at 37° C. for 40 min, the reactions were stopped by adding 20 μl of 2×SDS buffer and boiling at 94° C. for 5 min. Proteins were resolved by a PAGE gel and phosphorylation was detected by exposing the dried gel to X-ray film. Proteins from 35S::bes1-GFP transgenic plants were used for phosphatase (CIP) treatments as described (Fankhauser et al., 1999).
Besides BIN2, nine additional GSK-3 kinases (also designated ASKs for Arabidopsis SHAGGY-related kinases) divided into four subgroups (I-IV) have been identified in Arabidopsis (Jonak and Hirt, 2002; Yoo et al. 2006). To determine the specificity of abrasin, its effect on the kinase activity of all ASKs was analyzed with myelin basic protein (MBP) as a general substrate.

[3] = tested on: BR-biosynthetic, BR signaling and BR-induced genes; test: Real time PCR of BR pathway genes; format: in vivo, Arabidopsis thaliana
Method: FIG. 7: Q-PCR analysis of genes involved in BR biosynthesis. WT Arabidopsis plants were treated with abrasin (indicated as I5) for 2 hours at a concentration of 30 μM and/or with CHX at a concentration of 30 μM and RNA was extracted from whole plants.
FIG. 8: A: Western Blot analysis of the BES1 protein in 35S:BES1:GFP plants treated with BL and abrasin (indicated as I5 throughout the figure) (A); MG132 with BL or abrasin (B); a time course with abrasin (C) and a concentration gradient with abrasin (D). B: Abrasin and BL induce similar transcriptional regulation of the BR pathway.
RNA was extracted with the RNeasy kit. Poly(dT) cDNA was prepared from […] of total RNA with Superscript III reverse transcriptase (Invitrogen) and quantified on an LightCycler 480 apparatus (Roche) with the SYBR Green I Master kit (Roche) according to the manufacturer's instructions. Target quantifications were performed with specific primer pairs designed with the Beacon Designer 4.0 (Premier Biosoft International). All PCRs were performed in triplicate.
The primers used to quantify gene expression levels were for BAS 1: 5′-[…]-3′ and 5′-[…]-3′; BR6Ox1: 5′-TGGCCAATCTTTGGCGAA-3′ and 5′-[…]-3′; BR6Ox2: 5′-[…]-3′ and 5′-[…]-3′; BRI1: 5′-[…]-3′ and 5′-[…]-3′; CPD: 5′-[…]-3′ and 5′-[…]-3′; DWF4: 5′-[…]-3′ and 5′-[…]-3′ ROT3: 5′-ATTGGCGCGTTCCTCAGAT-3′ and 5′-[…]-3′; BES1: 5′-[…]-3′ and 5′-[…]-3′; BIN2: 5′-[…]-3′ and 5′-[…]-3′; BSU 1: 5′-[…]-3′ and 5′-[…]-3′; BZR1: 5′-[…]-3′ and 5′-[…]-3′; CDKA1; 1: 5′-[…]-3′ and 5′-[…]-3′; EEF1α: 5′-[…]-3′ and 5′-[…]-3′; BKI1: 5′-GCTCCGGCGTCGATGA-3′ and 5′-[…]-3′.

[4] = tested on: Arabidopsis thaliana seedlings; test: Lateral root formation / root elongation of seedlings on agar plates; format: in vivo; settings: Arabidopsis thaliana; read-out: root elongation and lateral root development inhibited, EC50-value
Method: FIG. 3: (A) Phenotypic characterization. WT plants were grown under standard conditions on agar plates. […] Left panel: control plant. Middle panel: abrasin treated plant. Right panel: BL treated plant. (B) Dose response measurements of abrasin using lateral root formation as an indicator of brassinosteroid like activity. Error bars represent standard error of the mean. […] Osram) at 22° C. Three days after germination compounds were added to the 96-well plates at a final concentration of 50 μM. Plants were screened six days after germination for brassinosteroid-related phenotypes. For further phenotypical analysis, all plants were grown on vertically oriented square plates (Greiner Labortechnik, Austria) with solid medium derived from standard Murashige and Skoog medium under the same conditions. For the hypocotyl-elongation assay, plants were grown in the dark at 22° C. under the same conditions.

O=C(O)CCC(=O)Nc1ccc(Br)cn1 [abrasin, 4-[(5-bromo-2-pyridinyl)amino]-4-oxobutanoic acid]
residual activity [1]: 6-8%
remaining activity at 10 µM [2]: 20%
expression of genes downstream of the BRI1 receptor ([3]; 30 μM, 2 hours): all genes are upregulated
expression of genes involved in biosynthesis and perception ([3]; 30 μM, 2 hours): regulated in the same way as a BL-treatment
RNA levels of BR biosynthetic, signaling and BR-induced genes ([3]; 3-day-old seedlings, Abrasin 30 μM, 6 hours, compared to BL 1 μM): the expression profiles resembled closely those of BL treatment
EC50 [4]: 20 µM
